# From BindingDB's records for patent US20250313563 (The Broad Institute, 2025)
# Values joined by “and” are separate entries in the source; they are usually repeats but may differ in a detail not shown here. Equal values may be shown once.
# Key:
# [1] = target: Glycogen synthase kinase-3 alpha (Homo sapiens, UniProt P49840); assay: TR-FRET Assay
# Summary of the method: (§1)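 Enzyme and test compound were first incubated together for 30 minutes in assay buffer. The kinase reaction followed and was stopped with EDTA. The pSer641 signal was read by time-resolved FRET.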
# [2] = target: Glycogen synthase kinase-3 beta (Homo sapiens, UniProt P49841); assay: TR-FRET Assay
# Chain of Glycogen synthase kinase-3 beta (P49841 whole entry): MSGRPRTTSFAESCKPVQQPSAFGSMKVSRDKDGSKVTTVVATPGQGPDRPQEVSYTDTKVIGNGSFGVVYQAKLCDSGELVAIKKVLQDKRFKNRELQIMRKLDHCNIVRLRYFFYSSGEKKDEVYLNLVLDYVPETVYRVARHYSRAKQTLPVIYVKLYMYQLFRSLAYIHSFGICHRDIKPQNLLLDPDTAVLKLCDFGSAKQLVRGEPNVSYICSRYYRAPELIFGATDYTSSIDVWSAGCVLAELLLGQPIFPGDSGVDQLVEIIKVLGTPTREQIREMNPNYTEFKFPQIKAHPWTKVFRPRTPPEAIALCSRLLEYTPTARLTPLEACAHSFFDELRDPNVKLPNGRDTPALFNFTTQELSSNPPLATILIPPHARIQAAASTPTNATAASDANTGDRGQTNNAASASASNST
# Summary of the method: as §1
# Chain of Glycogen synthase kinase-3 alpha (P49840 whole entry): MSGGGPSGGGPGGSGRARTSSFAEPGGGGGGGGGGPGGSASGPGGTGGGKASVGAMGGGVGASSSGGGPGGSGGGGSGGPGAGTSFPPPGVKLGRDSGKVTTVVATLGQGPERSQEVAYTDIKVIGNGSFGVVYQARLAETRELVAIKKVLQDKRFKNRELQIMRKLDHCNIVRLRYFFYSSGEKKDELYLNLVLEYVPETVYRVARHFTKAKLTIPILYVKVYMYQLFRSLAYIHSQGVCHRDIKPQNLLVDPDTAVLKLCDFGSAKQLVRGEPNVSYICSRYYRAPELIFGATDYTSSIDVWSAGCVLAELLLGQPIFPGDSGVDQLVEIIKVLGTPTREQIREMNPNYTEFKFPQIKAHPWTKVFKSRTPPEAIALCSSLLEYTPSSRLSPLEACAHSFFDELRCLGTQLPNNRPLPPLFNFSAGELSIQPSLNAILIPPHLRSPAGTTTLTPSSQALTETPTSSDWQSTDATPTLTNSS
SMILES,IC50 [1],IC50 [2]
"CCC1(c2cccc(-c3cnnn3C)c2)C2=CN=NC2NC2=C1C(=O)CC(C)(C)C2 (stereo not given) [US20250313563, Compound 947398]",< 0.1 µM,< 0.1 µM
"CCC1(c2cccc(-c3ccnc(C)c3C)c2)C2=C(CC(C)(C)NC2=O)NC2N=NC(C)=C21 (stereo not given) [US20250313563, Compound 947399]",0.1 to 1 µM,1 to 5 µM
"CCC1(c2cccc(Oc3ncccn3)c2)C2=CN=NC2NC2=C1C(=O)CC(C)(C)C2 (stereo not given) [US20250313563, Compound 947400]",< 0.1 µM,< 0.1 µM
"CCC1(c2cccc(-c3cc(C)ncc3F)c2)C2=CN=NC2NC2=C1C(=O)NC(C)(C)C2 (stereo not given) [US20250313563, Compound 947401]",< 0.1 µM and 0.1 to 1 µM,0.1 to 1 µM and > 5 µM
"CCC1(c2cccc(-c3ccnc(C)c3F)c2)C2=C(CC(C)(C)NC2=O)NC2N=NC(C)=C21 (stereo not given) [US20250313563, Compound 947402]",< 0.1 µM,0.1 to 1 µM
"CCC1(c2cccc(-c3cnn(C)c3C)c2)C2=C(CC(C)(C)NC2=O)NC2N=NC(C(F)(F)F)=C21 (stereo not given) [US20250313563, Compound 947403]",< 0.1 µM,< 0.1 µM and 0.1 to 1 µM
"CCC1(c2cccc(-c3cnn(C)c3)c2)C2=C(CC(C)(C)NC2=O)NC2N=NC(C(F)(F)F)=C21 (stereo not given) [US20250313563, Compound 947405]",< 0.1 µM,< 0.1 µM and 0.1 to 1 µM
"CC[C@@]1(c2cccc(-c3ccnc(C)c3)c2)C2=CN=NC2NC2=C1C(=O)N[C@@]1(CCOC1)C2 (stereo not given in full) [US20250313563, Compound 947406]",< 0.1 µM and 0.1 to 1 µM,0.1 to 1 µM and > 5 µM
"CC[C@@]1(c2cccc(-c3c(C)nn(C)c3C)c2)C2=CN=NC2NC2=C1C(=O)NC(C)(C)C2 (stereo not given in full) [US20250313563, Compound 947408]",< 0.1 µM and 0.1 to 1 µM,< 0.1 µM and 1 to 5 µM
"CC[C@]1(c2cccc(-c3ccncc3C)c2)C2=C(CC(C)(C)NC2=O)NC2N=NC(C)=C21 (stereo not given in full) [US20250313563, Compound 947409]",1 to 5 µM,> 5 µM
"CC[C@@]1(c2cccc(-c3cnn4c3CCCC4)c2)C2=CN=NC2NC2=C1C(=O)NC(C)(C)C2 (stereo not given in full) [US20250313563, Compound 947410]",< 0.1 µM and 0.1 to 1 µM,0.1 to 1 µM and > 5 µM
"CC[C@@]1(c2cccc(-c3ccnc(C)c3)c2)C2=CN=NC2NC2=C1C(=O)C[C@@]1(CCOC1)C2 (stereo not given in full) [US20250313563, Compound 947411]",> 5 µM,> 5 µM
"CC[C@]1(c2cccc(-c3c(C)nn(C)c3C)c2)C2=CN=NC2NC2=C1C(=O)NC(C)(C)C2 (stereo not given in full) [US20250313563, Compound 947413]",1 to 5 µM,> 5 µM
"CC[C@@]1(c2cccc(-c3ccncc3C)c2)C2=C(CC(C)(C)NC2=O)NC2N=NC(C)=C21 (stereo not given in full) [US20250313563, Compound 947414]",< 0.1 µM and 0.1 to 1 µM,< 0.1 µM and 1 to 5 µM
"CC[C@]1(c2cccc(C(F)(F)F)c2)C2=CN=NC2NC2=C1C(=O)N(c1cccnc1)CC2 (stereo not given in full) [US20250313563, Compound 947432]",< 0.1 µM and 0.1 to 1 µM,0.1 to 1 µM and > 5 µM
"CCC1(c2cccc(C(C)c3ncccn3)c2)C2=CN=NC2NC2=C1C(=O)CC(C)(C)C2 (stereo not given) [US20250313563, Compound 947434]",< 0.1 µM,0.1 to 1 µM
"Cc1ccc(S(=O)(=O)N2CCC3(CC2)C2=C(N=NC2)NC2=C3C(=O)CC(C)(C)C2)cc1 [US20250313563, Compound 947459]",< 0.1 µM,0.1 to 1 µM
"Cc1c(S(=O)(=O)N2CCC3(CC2)C2=C(N=NC2)NC2=C3C(=O)CC(C)(C)C2)cnn1C [US20250313563, Compound 947460]",< 0.1 µM,< 0.1 µM
"CC1(C)CC(=O)C2=C(C1)NC1=C(CN=N1)C21CCN(S(=O)(=O)c2ccn(-c3ccccc3)n2)CC1 [US20250313563, Compound 947461]",< 0.1 µM,< 0.1 µM
"CC1(C)CC(=O)C2=C(C1)NC1=C(CN=N1)C21CCN(S(=O)(=O)C2=CN=C3CC=CC=C3C2)CC1 [US20250313563, Compound 947462]",< 0.1 µM and 0.1 to 1 µM,< 0.1 µM and 1 to 5 µM
"CC1(C)CC(=O)C2=C(C1)NC1=C(CN=N1)C21CCN(S(=O)(=O)c2cnccc2C(F)(F)F)CC1 [US20250313563, Compound 947463]",< 0.1 µM,0.1 to 1 µM
"CC1(C)CC(=O)C2=C(C1)NC1=C(CN=N1)C21CCN(S(=O)(=O)c2cccc3c2OCCO3)CC1 [US20250313563, Compound 947464]",< 0.1 µM,< 0.1 µM and 0.1 to 1 µM
"COc1cncc(S(=O)(=O)N2CCC3(CC2)C2=C(N=NC2)NC2=C3C(=O)CC(C)(C)C2)c1 [US20250313563, Compound 947465]",< 0.1 µM,< 0.1 µM
"CC1(C)CC(=O)C2=C(C1)NC1=C(CN=N1)C21CCN(S(=O)(=O)c2cnnn2-c2ccccc2)CC1 [US20250313563, Compound 947466]",< 0.1 µM,0.1 to 1 µM
"CC1(C)CC(=O)C2=C(C1)NC1N=NC=C1C21CCN(S(=O)(=O)c2cnc3n2CCC3)CC1 (stereo not given) [US20250313563, Compound 947467]",< 0.1 µM,0.1 to 1 µM
